Reference: paper PMC3090445 (Journal of the American Chemical Society, 2008)

Columns and labels:
[1] = target: HDAC1 (Homo sapiens, UniProt Q13547); format: biochemical
[2] = test system: transformed and non-transformed human- and murine-derived cell lines; settings: transformed vs non-transformed human- and murine-derived cell lines; cited from earlier work

Sequence of HDAC1 (Q13547 whole entry): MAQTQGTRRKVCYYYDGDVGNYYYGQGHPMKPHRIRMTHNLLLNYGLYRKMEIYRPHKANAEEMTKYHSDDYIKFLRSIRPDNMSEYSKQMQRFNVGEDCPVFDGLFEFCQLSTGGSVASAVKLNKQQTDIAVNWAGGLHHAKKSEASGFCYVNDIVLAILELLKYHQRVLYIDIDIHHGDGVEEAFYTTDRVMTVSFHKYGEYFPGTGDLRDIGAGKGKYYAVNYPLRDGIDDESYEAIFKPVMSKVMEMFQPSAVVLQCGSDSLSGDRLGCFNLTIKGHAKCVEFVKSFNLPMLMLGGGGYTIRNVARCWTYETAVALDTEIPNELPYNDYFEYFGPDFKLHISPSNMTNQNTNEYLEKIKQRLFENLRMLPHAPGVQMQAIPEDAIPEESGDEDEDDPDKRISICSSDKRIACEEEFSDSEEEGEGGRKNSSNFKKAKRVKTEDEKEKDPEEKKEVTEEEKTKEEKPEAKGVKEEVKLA

Ki [1] | Structure (SMILES) | differential growth inhibition [2]
0.12 nM | C/C=C1\NC(=O)[C@H]2CSSCC/C=C/[C@H](CC(=O)N[C@H](C(C)C)C(=O)N2)OC(=O)[C@H](C(C)C)NC1=O [FK228] | –
– | CCCCCCCC(=O)SCC/C=C/[C@@H]1CC(=O)NCc2nc(cs2)C2=N[C@@](C)(CS2)C(=O)N[C@@H](C(C)C)C(=O)O1 [largazole (1), largazole] | two- to ten-fold
